# According to patent US20040063681A1, “Methods for using gold (III) complexes as anti-tumor and anti-HIV agents” (priority 2002, published 2004):
# Values joined by “and” are separate entries in the source; they are usually repeats but may differ in a detail not shown here. Equal entries are not always repeated.
# Legend:
# [1] = target: T1, HIV-1 reverse transcriptase (Human immunodeficiency virus type 1 group M subtype B, UniProt P04585); assay: HIV-1 reverse transcriptase activity, ELISA method; type: biochemical; settings: for HIV-1 RT inhibition: drug concentration fixed at 6 μM; for HIV-1 RT inhibition activity compared with the corresponding metal complex (1j, 1k): free-base porphyrins
# T1 construct: treatment of HIV-1 RT in Lysis buffer (2 ng, 128.7 μL) with Complex 1j
# Procedure: HIV-1 reverse transcriptase activities were measured by an ELISA method (see Eberle et al, J. Virol. Methods, 40:347-356 (1992) performed by incubating the enzyme with digoxigenin-labeled deoxyuridin-5′-triphosphate (dUTP) and the biotin-labeled analogue during reverse transcription starting from the template/primer hybrid poly(A)•oligo(dT)15. After reverse transcription, the newly synthesized DNA was immobilized onto streptavidin-coated ELISA wells, and the incorporation of the dioxigenin-labeled dUTP was assayed by chemiluminescence method. For example, treatment of HIV-1 RT in Lysis buffer (2 ng, 128.7 μL) with Complex 1j (1.3 μL of […] stock solution) dissolved in TBS at 37° C. produced significant RT activity inhibition (˜95%) after 30 min incubation.
# [2] = tested on: Human Cervix Epitheloid Carcinoma (HeLa); assay: MTT cytotoxicity, HeLa; type: cell-based; settings: for IC50: MTT, growth inhibition
# Excerpt: (§1) Human promyelocytic leukemia (HL-60), human hepatocellular carcinoma (HepG2), Human cervix epitheloid carcinoma cells (HeLa) and human oral epidermoid carcinoma cells (KB-3-1), were obtained from American Type Culture Collection (ATCC) (Rockville, Md.). […] Cell culture flasks and 96 well microtitre plates were from Nalge Nunc hit. Culture medium, other medium constituents and phosphate buffered saline (PBS) were obtained from Gibco BRL (Rockville, Md.). Cell Proliferation Kit I (MTT) was purchased from Roche (Mannheim, Germany).
# [3] = tested on: Human Nasopharyngeal Carcinoma (SUNE1); assay: MTT cytotoxicity, SUNE1; type: cell-based; settings: for IC50: MTT, growth inhibition
# Excerpt: as §1
# [4] = tested on: Human Hepatocellular Carcinoma (HepG2); assay: MTT cytotoxicity, HepG2; type: cell-based; settings: growth inhibition
# Excerpt: (§2) Human promyelocytic leukemia (HL-60), human hepatocellular carcinoma (HepG2), Human cervix epitheloid carcinoma cells (HeLa) and human oral epidermoid carcinoma cells (KB-3-1), were obtained from American Type Culture Collection (ATCC) (Rockville, Md.). The multi-drug-resistant variant KB-V1 cell line was obtained by stepwise selections for vinblastine resistance as described by Shen et al., J. Biol. Chem. 261:7762-7770 (1986)], and was generously provided by Dr Michael Gottesman (NIH, Bethesda, Md.). Human nasopharyngeal carcinoma cells (SUNE1 and its cisplatin resistance variant, CNE1) were derived from poorly differentiated NPC in Chinese patients as described by Gu et al., Chin. J. Cancer 2:270-272 (1983), and were generously provided by Dr S. W. Tsao (The University of Hong Kong, Hong Kong, PRC). Cell culture flasks and 96 well microtitre plates were from Nalge Nunc hit. Culture medium, other medium constituents and phosphate buffered saline (PBS) were obtained from Gibco BRL (Rockville, Md.). Cell Proliferation Kit I (MTT) was purchased from Roche (Mannheim, Germany).
# (§3) The anti-cancer activities of the gold(III) porphyrin complexes were evaluated toward some established human cancer cell lines: promyelocytic leukemia (HL-60), hepatocellular carcinoma (HepG2), cervix epitheloid carcinoma (HeLa), epidermoid carcinoma (KB-3-1) and its multi-drug resistant variant (KB-V1), nasopharyngeal carcinoma (SUNE1) and its cisplatin-resistant variant (CNE1). The experiments were carried out by following the MTT procedure (see Mosmann et al., J. Immunol. Methods 65:55-63 (1983). The IC50 values of the gold(III) porphyrin complexes together with that of cisplatin, and KAuCl4 are provided in Table 4a; and the IC50 values of the gold(III) Schiff-base and bis(pyridyl)carboxamide complexes are shown in Table 4b. The cytotoxicity profiles of some selected gold(III) porphyrin complexes toward SUNE1 and its cisplatin-resistant variant CNE1 are also shown in FIG. 7.
# [5] = tested on: Human Promyelocytic Leukemia (HL-60); assay: MTT cytotoxicity, HL-60; type: cell-based; settings: growth inhibition
# Excerpt: as §2, §3
# [6] = tested on: Human Oral Epidermoid Carcinoma (KB-3-1); assay: MTT cytotoxicity, KB-3-1; type: cell-based; settings: for IC50: MTT, growth inhibition
# Excerpt: as §1
# [7] = tested on: Human Oral Epidermoid Carcinoma (multi-drug resistance, KB-V-1); assay: MTT cytotoxicity, KB-V-1; type: cell-based; settings: for IC50: MTT, growth inhibition, multi-drug resistant
# Excerpt: as §2
# The anti-cancer activities of the gold(III) porphyrin complexes were evaluated toward some established human cancer cell lines: promyelocytic leukemia (HL-60), hepatocellular carcinoma (HepG2), cervix epitheloid carcinoma (HeLa), epidermoid carcinoma (KB-3-1) and its multi-drug resistant variant (KB-V1), nasopharyngeal carcinoma (SUNE1) and its cisplatin-resistant variant (CNE1).
# [8] = tested on: Human Nasopharyngeal Carcinoma (cisplatin resistance, CNE1); assay: MTT cytotoxicity, CNE1; type: cell-based; settings: for IC50: MTT, growth inhibition, cisplatin resistant
# Excerpt: as §1
# [9] = Electrochemical measurements (cyclic voltammetry); type: physicochemical; settings: for Couple I (first reduction couple) / Couple II (second reduction couple): cyclic voltammetry, 0.1 M nBu4NPF6, glassy carbon, vs Cp2Fe^+/0; for ΔE1o (E^0Y − E^0H), couple I / ΔE2^0 (E^0Y − E^0H), couple II: relative to Y=H (Complex 1a)
# Procedure: Electrochemical measurements. Electrochemical measurements were performed at room temperature after purging with nitrogen using 0.1 M tetrabutylammonium hexafluorophosphate (TBAP)/acetonitrile as supporting electrolyte. The working electrode was a glassy carbon (Atomergic Chemetal V25, geometric area of 0.35 cm^2) electrode and the counter electrode was platinum gauze. A nonaqueous Ag/AgNO3 (0.1 M in acetonitrile) reference electrode was contained in a separate compartment connected to the test solution via fine sintered glass disks. The ferrocenium/ferrocene couple was used as the internal standard. The redox properties of the gold(III) porphyrin complexes in non-aqueous medium (CH2Cl2 with 0.1 M nBu4NPF6) have been studied by cyclic voltammetry with glassy carbon and platinum as the working and counter electrodes, respectively. […] The effect of para-substitution on the electrochemical potentials has been examined by Hammett correlation analysis.
# calf thymus DNA = assay: UV-vis absorption titration with calf thymus DNA; type: binding; settings: for hypochromicity / intrinsic binding constant (Kb): Tris buffer
# Procedure: The calf thymus DNA was purchased from Sigma-Aldrich Chemical Co. and was purified by phenol-chloroform extraction. The DNA was dissolved in buffer (5 mM Tris, 5 mM NaCl, pH 7.2). The concentration (per base pair) of calf thymus DNA was determined spectrophotometrically on the basic of ε260, 13,200 M^−1cm^−1bp.
# Absorption Titration. The binding interaction of the gold(III) porphyrins to duplex DNA has been studied by UV-vis spectroscopy.
# where [ctDNA] is the concentration of DNA, Δεap═|εA−εB| in which εA=Aobs/[complex], and Δε=|εB−εF|. εB and εF correspond to the extinction coefficient of DNA-bound gold(III) porphyrin and the free gold(III) porphyrins, respectively.
# The effect of temperature on the intrinsic binding constants was investigated. Using the van't Hoff equation (2): […]
Compound,IC50 [2],IC50 [3],IC50 [4],IC50 [5],IC50 [6],IC50 [7],IC50 [8],IC50 ratio [cisplatin/gold (III) porphyrin complexes] HeLa [2],IC50 ratio [cisplatin/gold (III) porphyrin complexes] SUNE1 [3],IC50 ratio [cisplatin/gold (III) porphyrin complexes] CNE1 [8],also measured
[Au+].[Cl-].c1ccc(P(c2ccccc2)c2ccccc2)cc1 [[(Ph3P)Au^ICl]],–,–,–,–,–,–,–,–,–,–,HIV-1 RT inhibition [1]: 43%
"C[n+]1ccc(-c2c3nc(c(-c4cc[n+](C)cc4)c4ccc([nH]4)c(-c4cc[n+](C)cc4)c4nc(c(-c5cc[n+](C)cc5)c5ccc2[nH]5)C=C4)C=C3)cc1 [[H2TMPyP]^4+, Meso-tetrakis(N-methylpyridinium-4-yl)porphyrin]",–,–,–,–,–,–,–,–,–,–,"HIV-1 RT inhibition activity compared with the corresponding metal complex (1j, 1k) [1]: substantially lower HIV-1 RT inhibition activities"
"N.N.[Cl][Pt][Cl] [Pt(NH3)2Cl2, reference compound]",11200 nM,12600 nM,13500 nM,16800 nM,13200 nM,10200 nM,40800 nM,–,–,–,–
"CCCC[N+](CCCC)(CCCC)CCCC.[Au+3].[Cl-].[Cl-].[Cl-].[Cl-] [nBu4N[AuCl4], Tetrabutylammonium tetrachloroaurate, reference compound]",8410 nM,9940 nM,11200 nM,9710 nM,10300 nM,–,11500 nM,–,–,–,–
COc1cc(-c2c3nc(c(-c4cc(OC)c(OC)c(OC)c4)c4ccc([n-]4)c(-c4cc(OC)c(OC)c(OC)c4)c4nc(c(-c5cc(OC)c(OC)c(OC)c5)c5ccc2[n-]5)C=C4)C=C3)cc(OC)c1OC.[Au+3].[Cl-] [Complex 1f],680 nM,680 nM,1830 nM,740 nM,870 nM,710 nM,730 nM,16.5,18.5,55.9,IC50 ratio [cisplatin/gold (III) porphyrin complexes] KB-3-1 [6]: 15.1; IC50 ratio [cisplatin/gold (III) porphyrin complexes] KB-V1 [7]: 5.62
Brc1ccc(-c2c3nc(c(-c4ccc(Br)cc4)c4ccc([n-]4)c(-c4ccc(Br)cc4)c4nc(c(-c5ccc(Br)cc5)c5ccc2[n-]5)C=C4)C=C3)cc1.[Au+3].[Cl-] [Complex 1d],890 nM,740 nM,1210 nM,1120 nM,1290 nM,640 nM,980 nM,12.6,17.0,41.6,"Couple I (first reduction couple) [9]: −0.97 V; Couple II (second reduction couple) [9]: −1.45 V; ΔE1o (E^0Y − E^0H), couple I [9]: +0.03 V; ΔE2^0 (E^0Y − E^0H), couple II [9]: +0.03 V; IC50 ratio [cisplatin/gold (III) porphyrin complexes] KB-3-1 [6]: 10.23; IC50 ratio [cisplatin/gold (III) porphyrin complexes] KB-V1 [7]: 8.96"
CCc1c(CC)c2[n]3c1C=c1c(CC)c(CC)c4[n]1[Au]31[n]3c(c(CC)c(CC)c3C=c3c(CC)c(CC)c([n]31)=C2)C=4 [Complex 1h],–,–,–,–,–,–,–,–,–,–,"hypochromicity (calf thymus DNA; 291.4 K): 30.1%; intrinsic binding constant (Kb) (calf thymus DNA; 291.4 K): 4.14 × 10^6 dm^3mol^−1; hypochromicity (calf thymus DNA; 296.8 K): 29.2%; intrinsic binding constant (Kb) (calf thymus DNA; 296.8 K): 2.73 × 10^6 dm^3mol^−1; hypochromicity (calf thymus DNA; 302.2 K): 28.0%; intrinsic binding constant (Kb) (calf thymus DNA; 302.2 K): 1.51 × 10^6 dm^3mol^−1; hypochromicity (calf thymus DNA; 305.5 K): 26.1%; intrinsic binding constant (Kb) (calf thymus DNA; 305.5 K): 1.27 × 10^6 dm^3mol^−1; hypochromicity (calf thymus DNA; 311.2 K): 24.4%; intrinsic binding constant (Kb) (calf thymus DNA; 311.2 K): 0.96 × 10^6 dm^3mol^−1; ΔS° (calf thymus DNA; binding to calf thymus DNA, van't Hoff analysis): −17.3 calmol^−1K^−1 and −17.3 ± 0.7 calmol^−1K^−1; ΔG° (298 K) (calf thymus DNA; binding to calf thymus DNA, van't Hoff analysis, 298 K): −8.2 ± 0.7"
"O=S(=O)(O)c1ccc(-c2c3nc(c(-c4ccc(S(=O)(=O)O)cc4)c4ccc([nH]4)c(-c4ccc(S(=O)(=O)O)cc4)c4nc(c(-c5ccc(S(=O)(=O)O)cc5)c5ccc2[nH]5)C=C4)C=C3)cc1 [[H2TPPS]^4−, meso-tetrakis(4-sulfonatophenyl)porphyrin]",–,–,–,–,–,–,–,–,–,–,"HIV-1 RT inhibition activity compared with the corresponding metal complex (1j, 1k) [1]: substantially lower HIV-1 RT inhibition activities"
C[n+]1ccc(-c2c3nc(c(-c4cc[n+](C)cc4)c4ccc([nH]4)c(-c4cc[n+](C)cc4)c4nc(c(-c5cc[n+](C)cc5)c5ccc2[nH]5)C=C4)C=C3)cc1.[Cl-].[Cl-].[Cl-].[Cl-].[Zn] [[Zn^II(TMPyP)]Cl4],–,–,–,–,–,–,–,–,–,–,HIV-1 RT inhibition [1]: 32%
COc1ccc(-c2c3nc(c(-c4ccc(OC)cc4)c4ccc([n-]4)c(-c4ccc(OC)cc4)c4nc(c(-c5ccc(OC)cc5)c5ccc2[n-]5)C=C4)C=C3)cc1.[Au+3].[Cl-] [Complex 1c],660 nM,680 nM,760 nM,880 nM,–,–,770 nM,17.0,18.5,53.0,"Couple I (first reduction couple) [9]: −1.02 V; Couple II (second reduction couple) [9]: −1.51 V; ΔE1o (E^0Y − E^0H), couple I [9]: −0.02 V; ΔE2^0 (E^0Y − E^0H), couple II [9]: −0.02 V"
"Cc1cn(C2CC(N=[N+]=[N-])C(CO)O2)c(=O)[nH]c1=O (stereo not drawn) [AZT, 3′-azido-2′,3′-dideoxythymidine]",–,–,–,–,–,–,–,–,–,–,"inhibition at 0.008 µM ([1]; AZT 8 nM alone, read-out: HIV-1 RT enzyme inhibition, alone): 17 to 39%; IC50 ([1]; ELISA, mean ± SE of at least three determinations, read-out: IC50 HIV-1 RT): 69 ± 8 nM"
Clc1ccc(-c2c3nc(c(-c4ccc(Cl)cc4)c4ccc([n-]4)c(-c4ccc(Cl)cc4)c4nc(c(-c5ccc(Cl)cc5)c5ccc2[n-]5)C=C4)C=C3)cc1.[Au+3].[Cl-] [Complex 1e],690 nM,340 nM,920 nM,870 nM,500 nM,230 nM,410 nM,16.2,37.1,99.5,"Couple I (first reduction couple) [9]: −0.96 V; Couple II (second reduction couple) [9]: −1.44 V; ΔE1o (E^0Y − E^0H), couple I [9]: +0.44 V; ΔE2^0 (E^0Y − E^0H), couple II [9]: +0.44 V; IC50 ratio [cisplatin/gold (III) porphyrin complexes] KB-3-1 [6]: 26.4; IC50 ratio [cisplatin/gold (III) porphyrin complexes] KB-V1 [7]: 20.4"
